Assay: xn = mol fraction of the nth substance listed

CC(=O)N(C)C + CN(C)C=O
viscosity [mPa·s], 101 kPa
Settings	298.15 K	308.15 K	318.15 K
x1 = 0.05	0.809	0.718	0.642
x1 = 0.1062	0.816	0.724	0.647
x1 = 0.15	0.822	0.729	0.652
x1 = 0.2171	0.831	0.737	0.658
x1 = 0.26	0.837	0.742	0.662
x1 = 0.3094	0.843	0.747	0.666
x1 = 0.35	0.849	0.752	0.67
x1 = 0.405	0.856	0.758	0.675
x1 = 0.455	0.863	0.763	0.679
x1 = 0.5042	0.87	0.769	0.684
x1 = 0.55	0.876	0.774	0.688
x1 = 0.6071	0.883	0.781	0.694
x1 = 0.655	0.89	0.786	0.698
x1 = 0.714	0.898	0.793	0.704
x1 = 0.75	0.903	0.797	0.707
x1 = 0.7968	0.909	0.803	0.712
x1 = 0.85	0.916	0.809	0.717
x1 = 0.9112	0.925	0.816	0.723
x1 = 0.95	0.93	0.82	0.727

C[NH+](C)CCO.O=C([O-])CC(=O)O + O
101 kPa, x2 = 0.88
Settings	viscosity [mPa·s]
298 K	9.67
313 K	6.09

CCCCCCCCCO + CCCCCCCCCCO
Settings	viscosity [mPa·s]
293.15 K, 101.33 kPa, x1 = 0.1193	14.2
293.15 K, 101.33 kPa, x1 = 0.3048	13.76
293.15 K, 101.33 kPa, x1 = 0.5886	12.82
293.15 K, 101.33 kPa, x1 = 0.8745	12.02
298.15 K, 101.33 kPa, x1 = 0.2583	11.34
298.15 K, 101.33 kPa, x1 = 0.6152	10.53
298.15 K, 101.33 kPa, x1 = 0.869	9.852
298.15 K, 101.8 kPa, x1 = 0.9074	9.726
308.15 K, 101.8 kPa, x1 = 0.1082	7.899
308.15 K, 101.8 kPa, x1 = 0.3202	7.632
308.15 K, 101.8 kPa, x1 = 0.7188	7.125
308.15 K, 101.8 kPa, x1 = 0.9074	6.876
318.15 K, 101.8 kPa, x1 = 0.1082	5.649
318.15 K, 101.8 kPa, x1 = 0.3202	5.463
318.15 K, 101.8 kPa, x1 = 0.5233	5.336
318.15 K, 101.8 kPa, x1 = 0.7188	5.124
318.15 K, 101.8 kPa, x1 = 0.9074	4.953

CCCCCCCCCO + CCOC(=O)OCC
101 kPa
Settings	viscosity [mPa·s]
293.15 K, x1 = 0.008	0.816
293.15 K, x2 = 0.03967	9.964
293.15 K, x2 = 0.1094	7.69
293.15 K, x2 = 0.1857	5.899
293.15 K, x2 = 0.2865	4.28
293.15 K, x2 = 0.4032	3.037
293.15 K, x2 = 0.504	2.306
293.15 K, x2 = 0.5999	1.794
293.15 K, x2 = 0.6927	1.434
293.15 K, x2 = 0.8085	1.112
293.15 K, x2 = 0.8962	0.941
303.15 K, x1 = 0.00855	0.711
303.15 K, x2 = 0.03166	7.163
303.15 K, x2 = 0.1064	5.544
303.15 K, x2 = 0.1908	4.257
303.15 K, x2 = 0.2925	3.17
303.15 K, x2 = 0.4014	2.365
303.15 K, x2 = 0.5113	1.798
303.15 K, x2 = 0.62	1.39
303.15 K, x2 = 0.6981	1.173
303.15 K, x2 = 0.8041	0.949
303.15 K, x2 = 0.893	0.815
313.15 K, x1 = 0.00592	0.625
313.15 K, x2 = 0.06302	4.663
313.15 K, x2 = 0.1089	4.053
313.15 K, x2 = 0.1969	3.156
313.15 K, x2 = 0.301	2.399
313.15 K, x2 = 0.4008	1.879
313.15 K, x2 = 0.5098	1.458
313.15 K, x2 = 0.6011	1.199
313.15 K, x2 = 0.689	1.006
313.15 K, x2 = 0.8072	0.812
313.15 K, x2 = 0.8932	0.711

CCCCCC[n+]1ccn(C)c1.O=[N+]([O-])[O-] + CCCCCCCO
Settings	viscosity [mPa·s]
308.15 K, 100 kPa, x1 = 0.9381	206.5

CC(=O)N(C)C + CCCCO
viscosity [mPa·s]
Settings	298.15 K	303.15 K	313.15 K
100 kPa, x1 = 0.0565	2.252	–	1.598
100 kPa, x1 = 0.1063	2.049	–	1.477
100 kPa, x1 = 0.2094	1.716	–	1.287
100 kPa, x1 = 0.3134	1.503	–	1.15
100 kPa, x1 = 0.4106	1.361	–	1.063
100 kPa, x1 = 0.5083	1.263	–	0.9979
100 kPa, x1 = 0.6042	1.179	–	0.9502
100 kPa, x1 = 0.7096	1.119	–	0.9082
100 kPa, x1 = 0.8046	1.061	–	0.8651
100 kPa, x1 = 0.9078	0.9922	–	0.8128
100 kPa, x1 = 0.9575	0.9601	–	0.7894
101 kPa, x1 = 0.0968	–	1.862	–
101 kPa, x1 = 0.1997	–	1.585	–
101 kPa, x1 = 0.2976	–	1.43	–
101 kPa, x1 = 0.4	–	1.281	–
101 kPa, x1 = 0.4956	–	1.181	–
101 kPa, x1 = 0.599	–	1.097	–
101 kPa, x1 = 0.6978	–	1.029	–
101 kPa, x1 = 0.7867	–	0.975	–
101 kPa, x1 = 0.9006	–	0.917	–

CN(C)CCCO + O
viscosity [mPa·s], 101 kPa
Settings	303.15 K	308.15 K	313.15 K	318.15 K	323.15 K
x1 = 0.0478	2.218	1.896	1.635	1.432	1.262
x1 = 0.0968	4.633	3.796	3.147	2.654	2.264
x1 = 0.1512	7.882	6.285	5.078	4.181	3.481
x1 = 0.2009	–	8.49	6.753	5.485	4.497
x1 = 0.2997	14.97	11.59	9.103	7.288	5.903
x1 = 0.3537	–	12.35	9.663	7.732	6.247
x1 = 0.4037	16.02	12.42	9.761	7.792	6.34
x1 = 0.4574	15.39	12	9.458	7.631	6.19
x1 = 0.499	14.63	11.46	9.077	7.329	5.974
x1 = 0.6012	12.08	9.654	7.784	6.38	5.271
x1 = 0.7274	9.064	7.42	6.133	5.114	4.304
x1 = 0.8081	7.504	6.239	5.224	4.417	3.765
x1 = 0.9112	5.925	5.02	4.261	3.658	3.168

CC(=O)N(C)C + CC(C)O
303.15 K, 101 kPa
Settings	viscosity [mPa·s]
x1 = 0.1016	1.428
x1 = 0.2027	1.222
x1 = 0.3046	1.1
x1 = 0.5032	0.994
x1 = 0.6012	0.945
x1 = 0.7055	0.939
x1 = 0.906	0.884

Cc1cccc2ccccc12 + CC1CCCCC1
viscosity [mPa·s], 100 kPa
Settings	x1 = 0.125	x1 = 0.25	x1 = 0.375	x1 = 0.5	x1 = 0.625	x1 = 0.75	x1 = 0.875
303.15 K	0.715	0.829	0.972	1.13	1.37	1.67	2.06
323.15 K	0.559	0.64	0.733	0.853	1.01	1.2	1.44
